Reference: patent US20240189440A1, “TLR7 AND TLR8 AGONISTS FOR THE TREATMENT OF CANCER AND/OR INFECTIOUS DISEASES” (priority 2021, published 2024)

How the values were obtained:
[1] = system: NFκB induction (SEAP) in Ramos-blue cells; experiment: NFkB activation in Ramos-Blue cells for additional TLR7 agonists (Example 31); format: cell-based; conditions: for EC (2-fold SEAP signal): lowest concentration that doubles the SEAP background (nontreated) signal, read-out: Lowest concentration to induce 2x SEAP; for Fold increase in SEAP signal at lowest active concentration: versus nontreated background
Protocol: A 3× serial dilution was performed in 10% DMSO in PBS for each payload to have a final range of concentration from 1000 uM to 76 nM. Ramos-blue cells (InvivoGen, cat #rms-sp) were cultured using high glucose DMEM media supplied with 10% fetal bovine serum according to the manufacturer guidelines. The media was supplemented with 50 U/mL penicillin, 50 ug/mL streptomycin, and 100 ug/mL normocin to prevent bacterial contamination. The cell density and viability were calculated using a Countess Cell Counter and the proper volume of cells was removed in order to have a seeding density of 0.2×10^6 cells/mL per well. 135 uL of the cell suspension was added to each well in a 96-well plate along with 15 uL of the corresponding payload treatment. Each assay point was run in triplicate and the plate was incubated at 37° C. with 5% CO2 for 24 or 72 hours. In order to assess the NFκB induction, the QUANTI-Blue™ solution was prepared by adding 200 uL of QB reagent (InVivogen cat #rep-qbs) and 200 uL of QB buffer to 19.6 mL of water. The resulting solution was vortexed and incubated at room temperature for ten minutes. The 96-well plate was centrifuged at 1990 rpm for ten minutes and 40 uL of the cell supernatant was added to 160 uL of the prepared QUANTI-Blue™ solution. The QB reaction plate was incubated at 37° C. for 24 hours. The plate was read using the Molecular Devices i3x plate reader at a wavelength of 630 nm to determine the amount of SEAP production. The table below illustrates the lowest concentration of each compound that results in a doubling of the SEAP background (nontreated) signal. As illustrated, compounds of the invention ranged from low nM to low micromolar.

[2] = system: NFκB pathway in Ramos-blue cells; experiment: Ramos-Blue NFκB/SEAP reporter assay with cysteine-capped linker-payloads, 72 h (Example 15); format: cell-based; conditions: cysteine-capped, 72 hours, SEAP at 630 nm, read-out: Relative Activation; for activation at 5 µM: Linker-Payload Dose 5 uM; for activation at 50 µM: Linker-Payload Dose 50 uM
Protocol: A 50 mM cysteine stock was prepared in 0.1 M PBS pH 7.4. 10 equivalents of 50 mM cysteine were added to 1 equivalent of linker-payload to create a 2.50 mM solution. The reaction was vortexed and sat at room temperature for an hour to allow for the Michael addition to occur. After an hour, an aliquot was taken and run via UPLC-MS to ensure for the complete Michael reaction. The reaction was diluted to 1 mM using 0.1M PBS pH 7.4. The 1 mM solution was diluted to 500 uM and 50 uM in a 96-well plate to afford a final concentration of 50 uM and 5 uM in the cell suspension. The cell density and viability were calculated using the Countess Cell Counter and the proper volume of cells was removed in order to have a seeding density of 0.2×10^6 cells/mL per well. 135 uL of cell suspension was added to each well in a 96-well plate along with 15 uL of the corresponding linker-payload treatment. Each concentration was run in triplicate and incubated at 37° C. with 5% CO2 for 72 hours.
Invivogen's QUANTI-Blue™ solution was prepared by adding 200 uL of QB reagent and 200 uL of QB buffer to 19.6 mL of water. The resulting solution was vortexed and incubated at room temperature for ten minutes. The 96-well plate was centrifuged at 1990 rpm for ten minutes. Then, 40 uL of cell supernatant was added to 160 uL of the prepared QUANTI-Blue™ solution and incubated at 37° C. for 24 hours. The plate was read using the Molecular Devices i3x plate reader at a wavelength of 630 nm to determine the amount of SEAP production.

| Molecule | EC (2-fold SEAP signal) [1] | Fold increase in SEAP signal at lowest active concentration [1] | activation at 5 µM [2] | activation at 50 µM [2] |
| --- | --- | --- | --- | --- |
| CCCCc1nc2c(N)nc3ccccc3c2n1Cc1ccc(NC(=O)CCCNC(=O)OC(C)(C)C)cc1 [20c, tert-butyl(4-((4-((4-amino-2-butyl-1H-imidazo[4,5-c]quinolin-1-yl)methyl)phenyl)amino)-4-oxobutyl)carbamate] | 0.0076 µM | 2.352 | – | – |
| CCCCc1nc2c(N)nc3ccccc3c2n1Cc1ccc(NC(=O)CCCCNC(=O)OC(C)(C)C)cc1 [20d, tert-butyl(5-((4-((4-amino-2-butyl-1H-imidazo[4,5-c]quinolin-1-yl)methyl)phenyl)amino)-5-oxopentyl)carbamate] | 0.0076 µM | 2.222 | – | – |
| CCCCc1nc2c(N)nc3ccccc3c2n1Cc1ccc(NC(=O)CCCCCNC(=O)OC(C)(C)C)cc1 [20e, tert-butyl(6-((4-((4-amino-2-butyl-1H-imidazo[4,5-c]quinolin-1-yl)methyl)phenyl)amino)-6-oxohexyl)carbamate] | 0.069 µM | 2.983 | – | – |
| CCCCc1nc2c(N)nc3ccccc3c2n1Cc1ccc(NC(=O)CN)cc1 [20f, 2-amino-N-(4-((4-amino-2-butyl-1H-imidazo[4,5-c]quinolin-1-yl)methyl)phenyl)acetamide] | 0.069 µM | 2.225 | – | – |
| CCCCc1nc2c(N)nc3ccccc3c2n1Cc1ccc(NC(=O)CCN)cc1 [20g, 3-amino-N-(4-((4-amino-2-butyl-1H-imidazo[4,5-c]quinolin-1-yl)methyl)phenyl)propanamide] | 0.62 µM | 2.638 | – | – |
| CCCCc1nc2c(N)nc3ccccc3c2n1Cc1ccc(NC(=O)CCCCCN)cc1 [20j, 6-amino-N-(4-((4-amino-2-butyl-1H-imidazo[4,5-c]quinolin-1-yl)methyl)phenyl)hexanamide] | 0.21 µM | 2.802 | – | – |
| CCCCC(=O)Nc1ccc(Cn2c(CCCC)nc3c(N)nc4ccccc4c32)cc1 [20k, N-(4-((4-amino-2-butyl-1H-imidazo[4,5-c]quinolin-1-yl)methyl)phenyl)pentanamide] | 0.0076 µM | 2.398 | – | – |
| CCCCc1nc2c(N)nc3ccccc3c2n1Cc1ccc(NC(C)=O)cc1 [20l, N-(4-((4-amino-2-butyl-1H-imidazo[4,5-c]quinolin-1-yl)methyl)phenyl)acetamide] | 0.023 µM | 2.11 | – | – |
| CCCCc1nc2c(N)nc3ccccc3c2n1Cc1ccc(NC(=O)OCC)cc1 [20m, ethyl (4-((4-amino-2-butyl-1H-imidazo[4,5-c]quinolin-1-yl)methyl)phenyl)carbamate] | 0.023 µM | 3.188 | – | – |
| CCCCc1nc2c(N)nc3ccccc3c2n1Cc1ccc(NC(=O)OC(C)C)cc1 [20n, Isopropyl (4-((4-amino-2-butyl-1H-imidazo[4,5-c]quinolin-1-yl)methyl)phenyl)carbamate] | 0.0076 µM | 1.925 | – | – |
| CCCCOC(=O)Cc1ccc(Cn2c(CCCC)nc3c(N)nc4ccccc4c32)cc1 [20o, Butyl 2-(4-((4-amino-2-butyl-1H-imidazo[4,5-c]quinolin-1-yl)methyl)phenyl)acetate] | 0.069 µM | 4.158 | – | – |
| CCCCc1nc2c(N)nc3ccccc3c2n1Cc1cccc(OC)c1 [21e, 2-butyl-1-(3-methoxybenzyl)-1H-imidazo[4,5-c]quinoline-4-amine] | 0.62 µM | 5.753 | – | – |
| CCCCc1nc2c(N)nc3ccccc3c2n1Cc1cccc(O)c1 [21f, 3-((4-amino-2-butyl-1H-imidazo[4,5-c]quinolin-1-yl)methyl)phenol] | 0.21 µM | 2.902 | – | – |
| CCCCc1nc2c(N)nc3ccccc3c2n1Cc1ccc(OC)cc1 [22e, 2-butyl-1-(4-methoxybenzyl)-1H-imidazo[4,5-c]quinolin-4-amine] | 0.21 µM | 2.537 | – | – |
| CCCCc1nc2c(N)nc3ccccc3c2n1Cc1ccc(O)cc1 [22f, 4-((4-amino-2-butyl-1H-imidazo[4,5-c]quinolin-1-yl)methyl)phenol] | 0.069 µM | 2.269 | – | – |
| CCCCc1nc2c(N)nc3ccccc3c2n1Cc1cccc(NC(=O)OC(C)(C)C)c1 [23e, Tert-butyl (3-((4-amino-2-butyl-1H-imidazo[4,5-c]quinoline-1-yl)methyl)phenyl)carbamate] | 1.87 µM | 4.344 | – | – |
| CCCCc1nc2c(N)nc3ccccc3c2n1Cc1cccc(N)c1 [23f, 1-(3-aminobenzyl)-2-butyl-1H-imidazo[4,5-c]quinoline-4-amine] | 0.023 µM | 1.946 | – | – |
| CCCCc1nc2c(N)nc3ccccc3c2n1Cc1ccc(CNC(=O)CCCCCN2C(=O)C=CC2=O)cc1 [Mc_E66, N-(4-((4-amino-2-butyl-1H-imidazo[4,5-c]quinolin-1-yl)methyl)benzyl)-6-(2,5-dioxo-2,5-dihydro-1H-pyrrol-1-yl)hexanamide] | – | – | 119% | -52.3% |
| CCCCc1nc2c(N)nc3ccccc3c2n1Cc1ccc(NC(=O)CCCCCN2C(=O)C=CC2=O)cc1 [Mc_E104, N-(4-((4-amino-2-butyl-1H-imidazo[4,5-c]quinolin-1-yl)methyl)phenyl)-6-(2,5-dioxo-2,5-dihydro-1H-pyrrol-1-yl)hexanamide] | – | – | 704% | -52% |
| CCOCc1nc2c(NC(=O)CCCCCN3C(=O)C=CC3=O)nc3ccccc3c2n1CC(C)(C)O [Mc_Resiquimod, 6-(2,5-dioxo-2,5-dihydro-1H-pyrrol-1-yl)-N-(2-(ethoxymethyl)-1-(2-hydroxy-2-methylpropyl)-1H-imidazo[4,5-c]quinolin-4-yl)hexanamide] | – | – | 17.6% | -21% |
| CCCCc1nc2c(N)nc3ccccc3c2n1Cc1ccc(CNC(=O)OCc2ccc(NC(=O)C(CCCNC(N)=O)NC(=O)C(NC(=O)CCCCCN3C(=O)C=CC3=O)C(C)C)cc2)cc1 (stereo not shown) [Mc_ValCitPABC_E66, 4-(2-(2-(6-(2,5-Dioxo-2,5-dihydro-1H-pyrrol-1-yl)hexanamido)-3-methylbutanamido)-5-ureidopentanamido)benzyl 4-((4-amino-2-butyl-1H-imidazo[4,5-c]quinolin-1-yl)methyl)benzylcarbamate] | – | – | 7.15% | -19.7% |
| CCCCc1nc2c(N)nc3ccccc3c2n1Cc1ccc(NC(=O)OCc2ccc(NC(=O)C(CCCNC(N)=O)NC(=O)C(NC(=O)CCCCCN3C(=O)C=CC3=O)C(C)C)cc2)cc1 (stereo not shown) [Mc_ValCitPABC_E104, 4-(2-(2-(6-(2,5-dioxo-2,5-dihydro-1H-pyrrol-1-yl)hexanamido)-3-methylbutanamido)-5-ureidopentanamido)benzyl 4-((4-amino-2-butyl-1H-imidazo[4,5-c]quinolin-1-yl)methyl)phenylcarbamate] | – | – | 12.7% | -19.2% |
| (3-((4-((4-amino-2-butyl-1H-imidazo[4,5-c]quinolin-1-yl)methyl)phenyl)amino)-3-oxopropyl)carbamate [20b] | 0.0076 µM | 4.416 | – | – |
